“Also recorded” adds a separate entry of the source.
Assays:
[1] = tested on: U. maydis strains FB1 and FB2; experiment: Maize seedling infection model, compound added to inoculum, symptom scoring 12 dpi; type: in vivo, Ustilago maydis; design: key to Severity of disease symptoms First infection / Severity of disease symptoms Second infection: Full virulence is symbolized by (XXXXX); XXX - slightly reduced virulence; XX - reduced virulence; x - strongly reduced virulence; conditions: for inhibitory effect on virulence of U. maydis: 1 mM, 0.5 mM and 0.1 mM final concentration in the inoculum (Figure 2C); for virulence of U. maydis: 5 mM final concentration in the inoculum of FB1xFB2, first test of ten hits; for Retesting for an inhibition of virulence: U. maydis, retest of four compounds; for Severity of disease symptoms First infection: 4-7 plants per assay
Procedure: Compounds to be tested were added to the inoculum. Briefly, 6 day old maize seedlings were syringe-infected with about 0.5 ml of fungal suspension in H2O which was amended with the hit compound. The infection and symptoms assessment were done as described in Kämper et al., (Insights from the genome of the biotrophic fungal plant pathogen Ustilago maydis. Nature 2006, 444, 97-101). During the syringe-infection into the stem, the fungal-compound mix is dispersed between the rolled-up leaves and fills the leaf whorl. The compounds were applied only at the stage of mixing with the inoculum, which is subsequently diluted with existing apoplastic fluid, during the infection. In addition, compounds have to reach the Stp complex in biotrophic hyphae from the initial inoculum. […] Since compounds are dissolved in DMSO, the tolerance of U. maydis towards DMSO was tested by adding DMSO to the inoculum at concentrations between 10 and 50% final concentration.
Symptom scoring was done 12 days post infection (dpi) in case of U. maydis seedling infections. Symptom scoring occurred according to the categories described in Table 2. Table 2: Categories of virulence symptoms of U. maydis maize seedling infection (according to Kämper et al., 2006).

U. fabae = experiment: Uromyces fabae - Vicia faba leaf infection, pustule formation versus DMSO leaflet; type: in vivo
Procedure: The Uromyces fabae - Vicia faba system was established by initially obtaining spores as well as broad bean seeds from the Institut für Phytomedizin at Hohenheim University, Germany. Briefly, Vicia faba plants (Bingenheimer Saatgut Frühe Weißkeimige, G142) were propagated in soil up to about the 4 leaf stage (2-3 plants per pot). Plants were transferred to a chamber lined with wet paper. 100 mg U. fabae spores were mixed with 160 mg skimmed milk powder in 200 ml sterile H2O. Tween 20 was added to a final concentration of 0.01 % and the mixture was stirred in the dark for 45 min. Leaves were sprayed with the suspension on both the upper and lower side and afterwards the entire compartment was fogged with H2O before closure and kept in the dark for 20 h. Plants were then gradually allowed to dry and were placed in a growth chamber under a light regime of 16 h light (24°C) and 8 h (20°C) dark until symptoms developed (10-12 days). Plants were tossed and spores were collected on underlying aluminum foil, and aliquots were frozen at -80°C.
For the infection with compounds added, 10 mg of U. fabae spores were mixed with 16 mg skimmed milk powder in 20 ml sterile H2O. Tween 20 was added to a final concentration of 0.01 % and the mixture was stirred in the dark for 45 min. Compounds were diluted to the desired concentration into in the spore suspension. The controls received the same amount of DMSO. Per bean plant, one pinnate leaf with two leaflets was selected and one of the leaflets was infected with spores + compound and the other with spores + DMSO, respectively. To this end leaves were lightly sprayed with H2O and the 100µl spore solution containing the compound or DMSO respectively was applied on the upper part of the using a small painting brush. Afterwards the plants were placed in a chamber lined with wet paper, fogged with H2O before closure and kept in the dark for 20 h. Plants were then gradually allowed to dry and were placed in a growth chamber under a light regime of 16 h light (24°C) and 8 h (20°C) dark until symptoms developed. The symptoms were quantified by using a previously described method (Sillero and Rubiales, 2002) with minor modifications. Comparisons of pustule formation were done as follow: leaf treated with spores plus DMSO (control) versus leaf treated with spores plus compound in DMSO (test). A single bifurcated leaf was used for this assay, and one half received the control and the other half receive spores with compound. Then it was determined whether pustule formation occurs or is inhibited. Leaves were scored for the development of brownish-red pustules. Only when brownish-red pustules containing powdery spores (urediniospores) appeared on the control leaf an infection was counted as valid. All compounds were tested in three biological replicates. Pictures were taken at 12-14 days post infection.

[2] = 1 mM final concentration in the inoculum of Zea Mays (Figure 2A, B)
[3] = 0.5 mM final concentration in the inoculum
[4] = 1 mM final concentration in the inoculum of Vicia faba
[5] = 5 mM hit compound added to inoculum of FB1xFB2, Zea mays

[O-][n+]1c(-c2ccc(C(F)(F)F)cc2)c(-c2ccc(C(F)(F)F)cc2)n2ccccc21 [Compound 2-A]
Virulence inhibition of U. maydis [1, 2]: able to reduce virulence | inhibitory effect on virulence of U. maydis [1]: concentration dependent inhibitory effect | virulence inhibition of U. fabae (pustule formation) (U. fabae; [3]): fully inhibit pustule formation | virulence inhibition of U. fabae (pustule formation) (U. fabae; [4]): able to inhibit pustule formation

Cc1ccc(-c2c(-c3ccc(C)cc3)[n+]([O-])c3ccccn23)cc1 [Compound 1-A]
Virulence inhibition of U. maydis [1, 2]: able to reduce virulence | inhibitory effect on virulence of U. maydis [1]: concentration dependent inhibitory effect | virulence of U. maydis [1]: significant reductions in virulence | Retesting for an inhibition of virulence [1]: confirmed the results | virulence inhibition of U. fabae (pustule formation) (U. fabae; [3]): developed symptoms | virulence inhibition of U. fabae (pustule formation) (U. fabae; [4]): able to inhibit pustule formation

Cc1ccc(CSc2nc(=O)n(C3CCCC3)c3c2CCC3)cc1 [Compound 1-C]
virulence of U. maydis [1]: significant reductions in virulence | Severity of disease symptoms First infection [1, 5]: XXX | Severity of disease symptoms Second infection ([1]; 5 mM hit compound added to inoculum of FB1xFB2, Zea mays, retest): XXX | Retesting for an inhibition of virulence [1]: confirmed the results | Virulence inhibition of U. maydis ([1]; dilution series between 5 mM and 0.01 mM final concentration (Figure 5)): concentration dependent; also recorded: strong inhibitory activity | virulence inhibition of U. fabae (pustule formation) (U. fabae; 0.1 mM final concentration): inhibited pustule formation | virulence inhibition of U. fabae (pustule formation) (U. fabae; [3]): inhibited pustule formation | virulence inhibition of U. fabae (pustule formation) (U. fabae; [4]): inhibited pustule formation | inhibitory activity on U. fabae virulence (U. fabae; Figure 6, concentration not given): strong inhibitory activity

CC(C)n1ncc2cc(NS(=O)(=O)c3cc(F)ccc3F)cnc21 [Compound 1-B]
Virulence inhibition of U. maydis ([1]; 0.5 mM final concentration, dilution series (Figure 7)): negligible | Virulence inhibition of U. maydis ([1]; 1 mM final concentration, dilution series (Figure 7)): very strong; also recorded: very strongly | virulence of U. maydis [1]: significant reductions in virulence | Virulence inhibition of U. maydis ([1]; 5 mM final concentration, dilution series (Figure 7)): very strong; also recorded: very strongly | Severity of disease symptoms First infection [1, 5]: XX | Retesting for an inhibition of virulence [1]: confirmed the results | virulence inhibition of U. fabae (pustule formation) (U. fabae; [4]): completely inhibited

O=[N+]([O-])c1ccc(-c2c(-c3ccccc3)n3ccccc3[n+]2[O-])cc1 [Compound 3-A]
Virulence inhibition of U. maydis [1, 2]: only mildly | virulence inhibition of U. fabae (pustule formation) (U. fabae; [3]): developed symptoms | virulence inhibition of U. fabae (pustule formation) (U. fabae; [4]): able to inhibit pustule formation
